In brackets after ≈: the same amount, converted by molar mass. Where two headings read alike, the source gives them in different places.
Assays:
Format in all cases: cell-based
[1] = test system: Rhodotorula mucilaginosa; test: Agar dilution MIC (Example 2); conditions: 168 h, agar plate, 27 °C, 7 days
Protocol: (§1) Series of diluted samples (20000, 10000, 5000, 2500, 2000, 1250, 625, 313, 156, 78, 39, 20, 10, 5, 2.5, 1.25 mg/l) of the compounds of the invention were prepared using dimethylsulfoxide. A sensitive culture medium-N (Nissui Seiyaku Co.) was used for bacteria and a potato dextrose agar culture medium (Nissui Seiyaku Co.) was used for fungi. 0.5 ml of each sample was added to and mixed with 9.5 ml of the culture medium, poured into a Petri dish and solidified to obtain a plate. As a result, the concentration of the compounds of the invention in the agar culture medium were 1000, 500, 250, 125, 100, 62.5, 31.3, 15.6, 7.8, 3.9, 2.0, 1.0, 0.5, 0.25, 0.125, 0.062 mg/l. The bacterium inoculated were cultured in a bouillon for the assay of sensitivity (Nissui Seiyaku Co.) at 37 °C for 20 hours, and the fungi were cultured in the potato dextrose agar culture medium (Nissui Seiyaku Co.) for 10 days and then a 10^6 CFU/ml suspension was prepared from each of them. A test bacteria or fungi suspension was streaked on an agar plate containing the compound of the present invention with platinum wire loop, and the agar plate was cultured at 37±1 °C for 18 to 20 hours for bacteria or at 27 °C for 7 days for fungi. A concentration at which no growth was seen was taken as minimum inhibitory concentration [MIC(mg/l)]. Symbols in the table mean the followings; • A: Bacillus subtilis, • B: Trichophyton mentagrophytes, • C: Rhodotorula mucilaginosa.

[2] = test system: Trichophyton mentagrophytes; test: Agar dilution MIC (Example 2); conditions: 168 h, agar plate, 27 °C, 7 days
Protocol: as §1

[3] = test system: freshwater green alga (Selenastrum capricornutum); test: Inhibition of propagation of freshwater green alga (Example 4); conditions: after 72 hours, cell number vs non-treated lot; for inhibition at 0.05 ppm: 50ppb, read-out: Propagation inhibiting rate(%) 50ppb; for inhibition at 0.5 ppm: 500ppb, read-out: Propagation inhibiting rate(%) 500ppb
Protocol: A predetermined amount of each of the compounds of the invention was dissolved in a culture medium containing 10^5 /ml of a freshwater green alga (Selenastrum capricornutum) at a logarithmic growth phase to prepare samples having a concentration of the compound of the invention in the medium of 500 ppb and 50ppb respectively. The samples were stationary cultured at 23±1 °C for […] under continuous illumination.
After 72 hours, the number of cells was measured using a hemacytometer to obtain propagation rate. The propagation inhibiting rate was calculated from comparison with the non-treated lot.

[4] = test system: Trichophyton mentagrophytes; conditions: 72 h, 100 ppm
Protocol: 31.3 ml of Trichophyton mentagrophytes to be tested was added to 125 ml of a potato dextrose agar culture medium (Nissui Seiyaku Co.). The medium was stirred not to foam the solutions, poured into plates uniformly and solidified.
Thereafter, predetermined amounts of the compounds of the invention were weighted and diluted with acetone to predetermined concentrations.
Paper disks were impregnated with samples containing predetermined amounts of the compounds of the invention, laid on a filter, dried with air and placed on a plate containing test microbe at equal intervals.
Trichophyton mentagrophytes was cultured at 28 °C for 3 days in a thermostatic chamber and the diameter of each inhibiting zone was measured to evaluate the activity of each compound. Symbols in the table mean the followings; • A: Trichophyton mentagrophytes, • ++: strongly inhibiting zone (equal to or more than 21 mm) is observed, • +: inhibiting zone (10 to 20 mm) is observed, • -: no inhibiting zone is observed.

[5] = test system: seawater diatom [Nitzschia closterium]; test: Inhibition of propagation of seawater diatom (Example 5); conditions: Cylindrotheca closterium, 72 h, read-out: Propagation inhibiting rate(%) 500ppb
Protocol: A predetermined amount of each of the compounds of the invention was dissolved in culture media containing 10^5 /ml of a seawater diatom [Nitzschia closterium] at a logarithmic growth phase to prepare samples having a concentration of the compound in the medium of 500 ppb. The samples were stationary cultured at 22±1 °C for […] under continuous illumination.
After 72 hours, cells were collected by centrifugation and disrupted by addition of methanol to extract chlorophyll, and the amount of chlorophyll was measured from absorbance using a spectrophotometer to obtain propagation rate. The propagation inhibiting rate was calculated from comparison with the non-treated lot.

[6] = test system: Chaetomium globosum; test: Agar dilution MIC (Example 3); conditions: 168 h, agar plate, 27 °C, 7 days
Protocol: (§2) Series of diluted samples (20000, 10000, 5000, 2500, 1250, 625, 313, 156, 78, 39 mg/l) of the compounds of the invention were prepared using dimethylsulfoxide. A sensitive culture medium-N (Nissui Seiyaku Co.) was used for bacteria and a potato dextrose agar culture medium (Nissui Seiyaku Co.) was used for fungi. 0.5 ml of each sample was added to and mixed with 9.5 ml of the culture medium, poured into a Petri dish and solidified to obtain a plate. As a result, the concentration of the compounds of the invention in the agar culture medium were 1000, 500, 250, 125, 62.5, 31.3, 15.6, 7.8, 3.9, 2.0 mg/l. The bacterium inoculated were cultured in a bouillon for the assay of sensitivity (Nissui Seiyaku Co.) at 37 °C for 20 hours, and the fungi were cultured in the potato dextrose agar culture medium (Nissui Seiyaku Co.) for 10 days and then a 10^6 CFU/ml suspension was prepared from each of them. A test bacteria or fungi suspension was streaked on an agar plate containing the compound of the present invention with platinum wire loop, and the agar plate was cultured at 37±1 °C for 18 to 20 hours for bacteria or at 27 °C for 7 days for fungi. A concentration at which no growth was seen was taken as minimum inhibitory concentration (MIC). Symbols in the tables mean the followings; • A: Bacillus subtilis, • B: Trichophyton mentagrophytes, • C: Staphylococcus aureus, • D: Aspergillus niger, • E: Penicillium funiculosum, • F: Candida albicans, • G: Micrococcus luteus, • H: Corynebacterium aquaticum, • I: Chaetomium globosum, • J: Fusarium moniliforme, • K: Saccharomyces cerevisiae, • L: Rhodotorula rubra, • M: Cladosporium cladosporioides, • N: Alternaria alternata.

[7] = test system: Saccharomyces cerevisiae; test: Agar dilution MIC (Example 3); conditions: 168 h, agar plate, 27 °C, 7 days
Protocol: as §2

[8] = test system: Corynebacterium aquaticum; test: Agar dilution MIC (Example 3); conditions: Leifsonia aquatica, agar plate, 37±1 °C, 18 to 20 hours
Protocol: as §2

[9] = test system: freshwater blue-green alga (Microcystis aeruginosa); test: Inhibition of propagation of freshwater algae (Example 6); conditions: 500ppb
Protocol: (§3) A predetermined amount each of the compounds of the invention was dissolved in a culture medium containing 10^5 /ml of a freshwater alga at a logarithmic growth phase to prepare samples having a concentration of the compound of the invention in the medium of 500 ppb and 50 ppb respectively. A shaking culture at 100 rpm was performed for […] under continuous illumination at 20±2 °C for freshwater diatom and at 23±2 °C for other algae.
(§4) After 72 hours and 168 hours, the […] of cells was measured using a hemacytometer to obtain propagation rate. The propagation inhibiting rate was calculated from comparison with the non-treated lot. Symbols in the tables mean the followings; • A: freshwater green alga (Chlorella pyrenoidosa), • B: freshwater blue-green alga (Microcystis aeruginosa), • C: freshwater diatom (Diatoma elongatum), • D: freshwater green alga (Scenedesmus pannonicus).

[10] = test system: freshwater diatom (Diatoma elongatum); test: as above; conditions: Diatoma tenuis; for inhibition at 0.05 ppm: 50ppb; for inhibition at 0.5 ppm: 500ppb
Protocol: as §3, §4

[11] = test system: freshwater green alga (Scenedesmus pannonicus); test: as above; conditions: Desmodesmus pannonicus, 500ppb
Protocol: as §3, §4

[12] = 72hr, read-out: Propagation inhibiting rate(%) 500ppb 72hr
[13] = 168hr, read-out: Propagation inhibiting rate(%) 500ppb 168hr
[14] = 168hr, read-out: Propagation inhibiting rate (%) 500ppb 168hr

Structure (SMILES)	MIC [2] [µg/mL]	inhibition at 0.05 ppm [3] [%]	inhibition at 0.5 ppm [3] [%]	further results
CN(Cc1cc(Cl)cc(Cl)c1)Cc1cccc2ccccc12 [Compound 40]		61	61	
CC(C)c1ccc(CN(C)Cc2cccc3ccccc23)cc1 [Compound 29]		95	96	Judgment (Target bacteria: A) [4]: ++ (strongly inhibiting zone (equal to or more than 21 mm) is observed); inhibition at 0.5 ppm [5]: 76%
CN(Cc1c(Cl)cccc1Cl)Cc1cccc2ccccc12 [Compound 48]			77	inhibition at 0.5 ppm [5]: 77%
CN(Cc1ccc(Cl)cc1)Cc1cccc2ccccc12 [Compound 31]		88	95	Judgment (Target bacteria: A) [4]: + (inhibiting zone (10 to 20 mm) is observed); inhibition at 0.5 ppm [9, 12]: 90%; inhibition at 0.5 ppm [9, 13]: 100%; inhibition at 0.05 ppm ([10]; 72hr, read-out: Propagation inhibiting rate(%) 50ppb 72hr): 61%; inhibition at 0.05 ppm ([10]; 168hr, read-out: Propagation inhibiting rate(%) 50ppb 168hr): 87%; inhibition at 0.5 ppm [10, 12]: 81%; inhibition at 0.5 ppm [10, 13]: 95%; inhibition at 0.5 ppm [11, 14]: 79%
Cc1ccc(CN(C)Cc2cccc3ccccc23)cc1C [Compound 41]	7.8 (≈ 27 µM)	66	97	
CC(C)Oc1ccc(CN(C)Cc2cccc3ccccc23)cc1 [Compound 47]	7.8 (≈ 24.4 µM)	63	71	
Cc1cccc(CN(C)Cc2cccc3ccccc23)c1 [Compound 50]	15.6 (≈ 56.6 µM)		93	
Clc1ccc(CNCc2c(Cl)cccc2Cl)cc1Cl [Compound 15]	3.9 (≈ 11.6 µM)		94	inhibition at 0.5 ppm [9, 12]: 92%; inhibition at 0.5 ppm [9, 13]: 100%; inhibition at 0.5 ppm ([11]; 72hr, read-out: Propagation inhibiting rate (%) 500ppb 72hr): 95%; inhibition at 0.5 ppm [11, 14]: 98%
COc1ccc(CN(C)Cc2cccc3ccccc23)cc1 [Compound 38]	7.8 (≈ 26.8 µM)		75	
CCCOc1ccc(CN(C)Cc2cccc3ccccc23)cc1 [Compound 51]	15.6 (≈ 48.8 µM)			
CN(Cc1ccc(C#N)cc1)Cc1cccc2ccccc12 [Compound 46]	15.6 (≈ 54.5 µM)		96	
CN(Cc1ccc(Cl)c(Cl)c1)C1CCc2ccccc21 (centres unmarked) [Compound 25]	15.6 (≈ 50.9 µM)		95	
CN(Cc1ccc(C(C)(C)C)cc1)Cc1cc(Cl)cc(Cl)c1 [Compound 1]		79	94	Judgment (Target bacteria: A) [4]: ++ (strongly inhibiting zone (equal to or more than 21 mm) is observed)
CN(Cc1ccc(C(C)(C)C)cc1)Cc1c(F)c(F)c(F)c(F)c1F [Compound 21]	7.8 (≈ 21.8 µM)			
CN(Cc1ccc(F)c(F)c1)Cc1cccc2ccccc12 [Compound 45]	15.6 (≈ 52.5 µM)		87	

More lines, main results first:

MIC [2] [µg/mL]	Structure (SMILES)	inhibition at 0.05 ppm [3] [%]	inhibition at 0.5 ppm [3] [%]	further results
7.8 (≈ 22.2 µM)	CN(Cc1ccc(C(C)(C)CCl)cc1)Cc1cccc2ccccc12 [Compound 35]	75	94	MIC [1]: 7.8 µg/mL (≈ 22.2 µM)
2 (≈ 5.79 µM)	CCCCCCc1ccc(CN(C)Cc2cccc3ccccc23)cc1 [Compound 36]		83	
< 1	CN(Cc1ccc(C(C)(C)C)cc1)Cc1cccc(C(F)(F)F)c1 [Compound 12]		90	MIC [6]: 125 µg/mL (≈ 373 µM); MIC [7]: 125 µg/mL (≈ 373 µM)
< 1	Cc1cccc(CN(C)Cc2ccc(C(C)(C)C)cc2)c1 [Compound 11]	70	93	MIC [6]: 63 µg/mL (≈ 224 µM); MIC [8]: 63 µg/mL (≈ 224 µM)
1 (≈ 2.97 µM)	CN(Cc1ccc(C(C)(C)C)cc1)Cc1cc(Cl)ccc1Cl [Compound 22]			
1 (≈ 2.7 µM)	CN(Cc1ccc(C(C)(C)C)cc1)Cc1c(Cl)ccc(Cl)c1Cl [Compound 33]			
0.25 (≈ 0.828 µM)	CN(Cc1ccc(C(C)(C)C)cc1)Cc1cccc(Cl)c1 [Compound 10]	87	95	Judgment (Target bacteria: A) [4]: ++ (strongly inhibiting zone (equal to or more than 21 mm) is observed)
3.9 (≈ 14.2 µM)	Cc1ccc(CN(C)Cc2cccc3ccccc23)cc1 [Compound 39]		90	
1 (≈ 2.97 µM)	CN(Cc1ccc(C(C)(C)C)cc1)Cc1ccc(Cl)cc1Cl [Compound 18]			
0.5 (≈ 1.51 µM)	CN(Cc1ccc(Cl)c(Cl)c1)Cc1cccc2ccccc12 [Compound 37]		69	
< 0.062	CN(Cc1ccc(C(C)(C)C)cc1)Cc1cccc2ccccc12 [Compound 30]		94	Judgment (Target bacteria: A) [4]: ++ (strongly inhibiting zone (equal to or more than 21 mm) is observed); MIC [1]: 15.6 µg/mL (≈ 49.1 µM)
< 1	COc1cccc(CN(C)Cc2ccc(C(C)(C)C)cc2)c1 [Compound 13]		92	MIC [8]: 63 µg/mL (≈ 212 µM)
1 (≈ 3.23 µM)	CN(Cc1ccc(C(C)(C)C)cc1)C1CCOc2ccccc21 (centres unmarked) [Compound 26]			
1 (≈ 3.31 µM)	CN(Cc1ccc(C(C)(C)C)cc1)Cc1ccccc1Cl [Compound 17]		83	
0.125 (≈ 0.372 µM)	CN(Cc1ccc(C(C)(C)C)cc1)Cc1cccc(Cl)c1Cl [Compound 24]		85	
